From PubChem BioAssay (NCI)
Where “and” joins values, the source holds several entries; their conditions need not be identical. Equal values may be shown once.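 Each compound was tested at five concentrations against cells in 96-well plates for 48 hours. The concentration for 50% growth inhibition is given as GI50. The concentration for full growth arrest is given as TGI.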

What was measured:
Assay in all cases: DTP human tumour cell line panel, 48 h
KM12 colon = system: KM12 colon
HOP-62 NSCLC = system: HOP-62 NSCLC
TK-10 renal = system: TK-10 renal
SNB-19 CNS = system: SNB-19 CNS
UACC-257 melanoma = system: UACC-257 melanoma
U251 CNS = system: U251 CNS
MALME-3M melanoma = system: MALME-3M melanoma
SK-MEL-28 melanoma = system: SK-MEL-28 melanoma
SK-MEL-5 melanoma = system: SK-MEL-5 melanoma
HCT-15 colon = system: HCT-15 colon

SMILES | GI50 (KM12 colon) | TGI (KM12 colon) | GI50 (HOP-62 NSCLC) | TGI (HOP-62 NSCLC) | GI50 (TK-10 renal) | TGI (TK-10 renal) | GI50 (SNB-19 CNS) | TGI (SNB-19 CNS) | GI50 (UACC-257 melanoma) | TGI (UACC-257 melanoma) | GI50 (U251 CNS) | TGI (U251 CNS) | GI50 (MALME-3M melanoma) | TGI (MALME-3M melanoma) | GI50 (SK-MEL-28 melanoma) | TGI (SK-MEL-28 melanoma) | GI50 (SK-MEL-5 melanoma) | TGI (SK-MEL-5 melanoma) | GI50 (HCT-15 colon) | TGI (HCT-15 colon)
c1cncc(CNc2ccccc2-c2nnc(Nc3ccc4c(c3)OCO4)o2)c1 | 0.0505 µM | > 100 µM | 0.085 µM | > 81 µM | 1.18 µM | > 46.8 µM | 0.112 µM | > 100 µM | 0.432 µM | 60.4 µM | 0.0452 µM | > 42.8 µM | 0.0744 µM | > 100 µM | 0.0654 µM | > 100 µM | 0.0449 µM | > 100 µM | 0.0578 µM | > 100 µM
C=C1CC[C@@H]2C(C)(C)[C@@H](O)CC[C@@]2(C)[C@@H]1COc1ccc2ccc(=O)oc2c1 | 12.3 µM | 29.1 µM | 15.2 µM | 35.6 µM | 15.3 µM | 43.4 µM | 14.1 µM | 34.2 µM | 14.1 µM | 32.1 µM | 9.62 µM | 24.8 µM | – | 31.2 µM | 15.1 µM | 30.1 µM | 5.68 µM | 18 µM | 11.5 µM | 26.8 µM
O=C(Oc1cccnc1)c1ccccc1Nc1ccnc(C(F)(F)F)c1 | 0.169 µM | 2.72 µM | 0.0473 µM | 0.214 µM | 0.369 µM | 31.8 µM | 0.54 µM | > 100 µM | 35.7 µM | > 100 µM | 0.33 µM | > 96.2 µM | 33.1 µM | > 100 µM | 0.483 µM | > 60.1 µM | 0.203 µM | 2.35 µM | 0.121 µM | > 100 µM
N#Cc1ccc(Oc2nccc(-c3c(-c4ccc(F)cc4)ncn3C3CCNCC3)n2)cc1 | 18.2 µM | > 25 µM | > 25 µM | > 25 µM | > 25 µM | > 25 µM | > 25 µM | > 25 µM | > 22.7 µM | > 25 µM | 11.8 µM | > 25 µM | > 16.6 µM | > 25 µM | > 25 µM | > 25 µM | 14.1 µM | > 25 µM | > 14.8 µM | > 25 µM
COc1cccc(Nc2nc(NNC(=O)Cc3ccccc3)nc(NNC(=O)c3ccncc3)n2)c1 | – | > 100 µM | > 100 µM | > 100 µM | > 100 µM | > 100 µM | – | > 100 µM | > 100 µM | > 100 µM | > 100 µM | > 100 µM | > 100 µM | > 100 µM | – | > 100 µM | > 100 µM | > 100 µM | > 100 µM | > 100 µM
C=CCN1C(=O)/C(=c2\sc3n(c2=O)C2C(NN=3)N(CC)C(=O)N2CC)c2ccccc21 (stereo not given) | 0.439 µM | > 100 µM | 1.02 µM | > 53.5 µM | 1.85 µM | > 20.5 µM | 0.973 µM | > 74.9 µM | – | > 100 µM | 0.726 µM | > 33.5 µM | 1.28 µM | > 100 µM | 5.36 µM | > 100 µM | 0.421 µM | 2.05 µM | 0.451 µM | > 100 µM
CCCCCCCCCCCCCCCCOC(=O)C(C(=O)OCCCCCCCCCCCCCCCC)[N+](C)(C)CCOC(C)=O | – | 33.8 µM | – | 25.8 µM | – | 26.5 µM | – | 43.8 µM | – | 35 µM | – | 27 µM | – | 41.2 µM | – | 40.8 µM | – | 35.1 µM | – | 46.1 µM
COC(=O)[C@]12CC[C@@H](C)[C@H](C)[C@@H]1C1=CC[C@@H]3[C@@]4(C)C[C@@H](OC(=O)c5ccco5)[C@H](O)[C@@](C)(CO)[C@@H]4[C@H](O)C[C@@]3(C)[C@]1(C)CC2 | 2.62 µM | 6.77 µM | 2.03 µM | 4 µM | 2.49 µM | 7.85 µM | 3.47 µM | 15 µM | 2.87 µM | 7.55 µM | 1.97 µM | 4.21 µM | 2.15 µM | 4.3 µM | 2.17 µM | 4.71 µM | 1.99 µM | 4.09 µM | 1.84 µM | 3.89 µM
Nc1nc(N)c2cc(CNc3ccc(Cl)c(Cl)c3)ccc2n1 | 0.866 µM | 2.13 µM | 0.81 µM | 2.05 µM | 1.42 µM | 2.73 µM | 0.822 µM | 2.09 µM | 0.891 µM | 2.24 µM | 0.433 µM | 1.66 µM | 1.21 µM | 2.77 µM | 1.51 µM | 2.84 µM | 0.519 µM | 1.82 µM | 0.365 µM | 1.72 µM
COc1ccc(/C=C/C(=O)c2sc(N)nc2C)cc1 | – | > 100 µM | – | > 100 µM | – | > 100 µM | – | > 100 µM | – | > 100 µM | – | > 100 µM | – | > 100 µM | – | > 100 µM | – | > 100 µM | – | > 100 µM
N/C(=N\O)c1ncc(-c2ccc(C(F)(F)F)cc2)c(NC2CCCCCC2)n1 | 6.51 µM and 3.13 µM | 13.1 µM | 7.5 µM and 6.53 µM | 23.2 µM | 2.49 µM | 9.73 µM | 3.27 µM | 13.8 µM | 3.23 µM | 13.2 µM | 4.35 µM and 1.83 µM | 7.51 µM | 3.81 µM | 13.9 µM | 5.38 µM | 19 µM | 4.66 µM and 3.44 µM | 15.5 µM | 2.97 µM and 0.955 µM | 15.1 µM
Nc1nnc2nc(CC(=O)/C=C/c3ccccc3)c(=O)[nH]n12 | – | > 100 µM | – | > 100 µM | – | > 100 µM | – | > 100 µM | – | > 100 µM | – | > 100 µM | – | > 100 µM | – | > 100 µM | – | > 100 µM | – | > 100 µM
CCSC1(SCC)CCN(C=NC(C)(C)C)C1 | – | > 100 µM | – | > 100 µM | – | > 100 µM | – | > 100 µM | – | > 100 µM | – | > 100 µM | – | > 100 µM | – | > 100 µM | – | > 100 µM | – | > 100 µM
COc1c(OC(C)=O)cc2c(OC(C)=O)c1CC(C)CC(OC)C(O)C(C)/C=C(\C)C(OC(N)=O)C(OC)/C=C\C=C(/C)C(=O)N2 (stereo not given) | – | > 100 µM | – | > 100 µM | – | > 100 µM | – | > 100 µM | – | > 100 µM | – | > 100 µM | – | > 100 µM | – | > 100 µM | – | > 100 µM | – | > 100 µM
